Measured values reported in ChEMBL document CHEMBL3885881, “DrugMatrix”.

Species on record: Rattus norvegicus
Format: toxicity, organism-based, Sprague-Dawley
Conditions: in vivo, po, route oral GAVAGE, […]; for ABSOLUTE EOSINOPHIL / ABSOLUTE LYMPHOCYTE / ABSOLUTE MONOCYTE / ABSOLUTE SEGMENTED NEUTROPHIL / BASOPHIL / EOSINOPHIL / ERYTHROCYTE COUNT / HEMATOCRIT / HEMOGLOBIN / LEUKOCYTE COUNT / LYMPHOCYTE / MEAN CORPUSCULAR HEMOGLOBIN / MEAN CORPUSCULAR HEMOGLOBIN CONCENTRATION / MEAN CORPUSCULAR VOLUME / MONOCYTE / NEUTROPHIL / NUCLEATED RED BLOOD CELLS / PLATELET COUNT: tissue Blood; for ALANINE AMINOTRANSFERASE / ALBUMIN / ALKALINE PHOSPHATASE / ASPARTATE AMINOTRANSFERASE / BLOOD UREA NITROGEN / CARBON DIOXIDE / CHLORIDE / CHOLESTEROL / CREATINE PHOSPHOKINASE / CREATININE / GLUCOSE / LACTATE DEHYDROGENASE / LIPASE / PHOSPHORUS / POTASSIUM / SODIUM / TOTAL BILIRUBIN / TOTAL PROTEIN / URIC ACID: tissue Plasma
[1] = 0 mg/kg, 6 h, vehicle control, dose level Control, time 0.25 day
[2] = 0 mg/kg, 24 h, vehicle control, dose level Control, time 1 day
[3] = 130 mg/kg, 6 h, dose level Low, time 0.25 day

Description: DrugMatrix - Regimen: Single

CCOC(=O)C(C)(C)Oc1ccc(Cl)cc1 [CLOFIBRATE]
ABSOLUTE EOSINOPHIL [1]: 0 CELLS/uL
ABSOLUTE LYMPHOCYTE [1]: 8631 CELLS/uL
ABSOLUTE MONOCYTE [1]: 171.17 CELLS/uL
ABSOLUTE SEGMENTED NEUTROPHIL [1]: 1214.5 CELLS/uL
BASOPHIL [1]: 0%
EOSINOPHIL [1]: 0%
ERYTHROCYTE COUNT [1]: 5.42 x10E6/uL
HEMATOCRIT [1]: 34.7%
HEMOGLOBIN [1]: 13.67 G/DL
LEUKOCYTE COUNT [1]: 10.02 x10E3/uL
LYMPHOCYTE [1]: 86.17%
MEAN CORPUSCULAR HEMOGLOBIN [1]: 25.27 pg
MEAN CORPUSCULAR HEMOGLOBIN CONCENTRATION [1]: 39.42 G/DL
MEAN CORPUSCULAR VOLUME [1]: 64.12 fL
MONOCYTE [1]: 1.67%
NEUTROPHIL [1]: 12.17%
NUCLEATED RED BLOOD CELLS [1]: 0 /100WBC
PLATELET COUNT [1]: 1050 x10E3/uL
ALANINE AMINOTRANSFERASE [1]: 61 u/L
ALBUMIN [1]: 4.67 G/DL
ALKALINE PHOSPHATASE [1]: 312.5 u/L
ASPARTATE AMINOTRANSFERASE [1]: 117.5 u/L
BLOOD UREA NITROGEN [1]: 8.67 mg/dL
CARBON DIOXIDE [1]: 26.33 mmol/L
CHLORIDE [1]: 100.5 MEQ/L
CHOLESTEROL [1]: 72 mg/dL
CREATINE PHOSPHOKINASE [1]: 283.33 u/L
CREATININE [1]: 0.28 mg/dL
GLUCOSE [1]: 172 mg/dL
LACTATE DEHYDROGENASE [1]: 95.33 u/L
LIPASE [1]: 10.17 u/L
PHOSPHORUS [1]: 9.9 mg/dL
POTASSIUM [1]: 5.75 MEQ/L
SODIUM [1]: 142.4 MEQ/L
TOTAL BILIRUBIN [1]: 0.3 mg/dL
TOTAL PROTEIN [1]: 5.43 G/DL
URIC ACID [1]: 0.73 mg/dL
ABSOLUTE EOSINOPHIL [2]: 90.83 CELLS/uL
ABSOLUTE LYMPHOCYTE [2]: 14725.17 CELLS/uL
ABSOLUTE MONOCYTE [2]: 220 CELLS/uL
ABSOLUTE SEGMENTED NEUTROPHIL [2]: 1080.67 CELLS/uL
BASOPHIL [2]: 0%
EOSINOPHIL [2]: 0.67%
ERYTHROCYTE COUNT [2]: 5.3 x10E6/uL
HEMATOCRIT [2]: 33.4%
HEMOGLOBIN [2]: 13.4 G/DL
LEUKOCYTE COUNT [2]: 16.12 x10E3/uL
LYMPHOCYTE [2]: 91.17%
MEAN CORPUSCULAR HEMOGLOBIN [2]: 25.3 pg
MEAN CORPUSCULAR HEMOGLOBIN CONCENTRATION [2]: 40.12 G/DL
MEAN CORPUSCULAR VOLUME [2]: 63.05 fL
MONOCYTE [2]: 1.5%
NEUTROPHIL [2]: 6.67%
NUCLEATED RED BLOOD CELLS [2]: 0 /100WBC
PLATELET COUNT [2]: 1062 x10E3/uL
ALANINE AMINOTRANSFERASE [2]: 69 u/L
ALBUMIN [2]: 4.33 G/DL
ALKALINE PHOSPHATASE [2]: 269 u/L
ASPARTATE AMINOTRANSFERASE [2]: 83.67 u/L
BLOOD UREA NITROGEN [2]: 14 mg/dL
CARBON DIOXIDE [2]: 29 mmol/L
CHLORIDE [2]: 100.83 MEQ/L
CHOLESTEROL [2]: 66.67 mg/dL
CREATINE PHOSPHOKINASE [2]: 355 u/L
CREATININE [2]: 0.18 mg/dL
GLUCOSE [2]: 161.33 mg/dL
LACTATE DEHYDROGENASE [2]: 123.33 u/L
LIPASE [2]: 10.67 u/L
PHOSPHORUS [2]: 8.83 mg/dL
POTASSIUM [2]: 6.06 MEQ/L
SODIUM [2]: 142.45 MEQ/L
TOTAL BILIRUBIN [2]: 0.2 mg/dL
TOTAL PROTEIN [2]: 5.72 G/DL
URIC ACID [2]: 1.27 mg/dL
ABSOLUTE EOSINOPHIL [3]: 53.33 CELLS/uL
ABSOLUTE LYMPHOCYTE [3]: 12668.17 CELLS/uL
ABSOLUTE MONOCYTE [3]: 233.17 CELLS/uL
ABSOLUTE SEGMENTED NEUTROPHIL [3]: 1278.67 CELLS/uL
BASOPHIL [3]: 0%
EOSINOPHIL [3]: 0.33%
ERYTHROCYTE COUNT [3]: 5.56 x10E6/uL
HEMATOCRIT [3]: 34.18%
HEMOGLOBIN [3]: 13.43 G/DL
LEUKOCYTE COUNT [3]: 14.23 x10E3/uL
LYMPHOCYTE [3]: 88.83%
MEAN CORPUSCULAR HEMOGLOBIN [3]: 24.17 pg
MEAN CORPUSCULAR HEMOGLOBIN CONCENTRATION [3]: 39.33 G/DL
MEAN CORPUSCULAR VOLUME [3]: 61.53 fL
MONOCYTE [3]: 1.67%
NEUTROPHIL [3]: 9.17%
NUCLEATED RED BLOOD CELLS [3]: 0 /100WBC
PLATELET COUNT [3]: 1136.67 x10E3/uL
ALANINE AMINOTRANSFERASE [3]: 40.17 u/L
ALBUMIN [3]: 4.38 G/DL
ALKALINE PHOSPHATASE [3]: 384.83 u/L
ASPARTATE AMINOTRANSFERASE [3]: 76.67 u/L
BLOOD UREA NITROGEN [3]: 7.4 mg/dL
CARBON DIOXIDE [3]: 25 mmol/L
CHLORIDE [3]: 101.4 MEQ/L
CHOLESTEROL [3]: 63.33 mg/dL
CREATINE PHOSPHOKINASE [3]: 249.67 u/L
CREATININE [3]: 0.36 mg/dL
GLUCOSE [3]: 139.83 mg/dL
LACTATE DEHYDROGENASE [3]: 146.17 u/L
LIPASE [3]: 10.2 u/L
PHOSPHORUS [3]: 10.1 mg/dL
POTASSIUM [3]: 5.97 MEQ/L
SODIUM [3]: 142.94 MEQ/L
TOTAL BILIRUBIN [3]: 0.38 mg/dL
TOTAL PROTEIN [3]: 5.73 G/DL
URIC ACID [3]: 0.96 mg/dL
